Test results: patent US8470783B2, “Medicinal use of histone deacetylase inhibitor and method of evaluating antitumor effect thereof” (Astellas Pharma Inc., priority 2001, dated 2013)

Tests used:
[1] = system: human prostate cancer cell line PC-3; assay: Antitumor test, human prostate cancer PC-3 solid tumor in nude mice (Example 1); assay type: in vivo, mouse; details: PC-3, i.v. q4d×3, 3.2 and 1.8 mg/kg, FIG. 1
Method: (§1) A necessary amount of FR901228 was weighed and a solvent (10% HCO-60/saline) was added. The mixture was sonicated to allow for dissolution. A positive control substance Paclitaxel was dissolved in Cremophor EL/ethanol (1:1) solution to 24 mg/mL prior to the testing, and preserved in a refrigerator. When in use, it was diluted with a 9-fold amount of physiological saline to 2.4 mg/mL (solvent component: 5% Cremophor EL-5% ethanol-90% saline).
For antitumor test of the pharmaceutical agent, BALB/cANnNCrj-nu/nu mice (male, 6-week-old) were purchased from Charles River Japan and, after acclimation for not less than one week, used for the test. The mice were reared under an SPF environment and allowed a free access to water and feed. […]
(§2) The administration was started on the day of grouping (Day 0). […] The amount of liquid for each administration was calculated (0.1 mL/10 g body weight) based on the body weight measured on the administration day. […]
(§3) The tumor size (longer diameter, shorter diameter) and body weight were measured twice a week from Day 0.
The level of tumor growth was evaluated based on the tumor growth rate (Relative Tumor Volume). […] The antitumor effect was determined on the 14th day (Day 14) from the start of the administration of the pharmaceutical agent. […]

[2] = system: human lymphoma cell line U937; assay: Survival test, human lymphoma U937 implanted intraperitoneally in SCID mice (Example 2); assay type: in vivo, mouse; details: U937, i.p. once or twice a week, 0.1-1.0 mg/kg, FIG. 2
Method: A necessary amount of FR901228 was weighed and a solvent (10% HCO-60/saline) was added. The mixture was sonicated to allow for dissolution.
For antitumor test of the pharmaceutical agent, Fox Chase C. B-17/Icr-SCID.Jcl mice (male, 6-week-old) were purchased from CLEA JAPAN INC. and, after acclimation for not less than one week, used for the test. The mice were reared under an SPF environment and allowed a free access to water and feed.
Cultured human lymphoma cell line (U937: obtained from Dr. Minowada, Hayashibara Biochemical Laboratories, Inc.) was cultured in RPMI (containing 10% FCS) and subcultured in vitro.
Cyclo phosphamide (Shionogi & Co., Ltd., 150 mg/kg) was intraperitoneally administered to mice. Lymphoma (1×10^7 cells) subcultured in vitro was intraperitoneally implanted the next day. After the tumor implantation, the mice were grouped into 6 (control group 12) mice per group to level the body weight.
The administration was started on the day of grouping (Day 0). FR901228 was intraperitoneally administered to an FR901228 administration group once or twice a week (0.1-1.0 mg/kg). Only a solvent (10% HCO-60/saline) was administered to a control group.
As an antitumor effect, the survival days of the mice were counted.

[3] = system: human prostate cancer cell line PC-3; assay: Antitumor test, human prostate cancer PC-3 solid tumor in nude mice (Example 3); assay type: in vivo, mouse; details: dose of 3.2 mg/kg i.v. q4d×3, FIG. 3(a)
Method: as §1
(§4) For antitumor test of the pharmaceutical agent, BALB/cANnNCrj-nu/nu mice (male, […]) were purchased from Charles River Japan and, after acclimation for not less than one week, used for the test. The mice were reared under an SPF environment and allowed a free access to water and feed. […]
as §2, §3
(§5) The level of tumor growth was evaluated based on the tumor growth rate (Relative Tumor Volume). […] The antitumor effect was determined on the 14th day (Day 14) from the start of the administration of a pharmaceutical agent. […]

[4] = system: human kidney cancer cell line ACHN; assay: Antitumor test, human kidney cancer ACHN solid tumor in nude mice (Example 3); assay type: in vivo, mouse; details: i.v. q4d×3, FIG. 3(b)
Method: as §1, §4, §2, §3, §5

[5] = system: p21 gene expression in PC-3 cells; assay: p21 gene expression in vitro by real time PCR, PC-3 (Example 4); assay type: cell-based, human; details: PC-3, FR901228 5 ng/mL, FIG. 4(a)
Method: (§6) A necessary amount of FR901228 was weighed and dissolved in a solvent (99.5% ethanol) to the concentration of 1 mg/mL. Then, the solution was diluted with culture medium.
(§7) Cultured human cancer cell (PC-3 and ACHN) were cultured in DMEM (containing 10% FCS).
(§8) The cells were inoculated at 2×10^6 cells per a culture dish, and cultured in the presence of FR901228 (5 ng/mL) for a given time. After culturing, RNA was extracted with a TRIZOL reagent (GIBCO BRL) according to the operation manual.
(§9) RNA was subjected to reverse transcription using a Taq-man reverse transcription reagent (PE Biosystem) according to the operation manual. Thereafter, p21 gene was amplified using a SYBR green PCR master mix (PE Biosystem) and primer 5′-GGCAGACCAGCATGACACATT-3′ (p21 upstream)(SEQ ID; No 1), 5′-GGATTAGGGCTTCCTCTTGGAG-3′ (SEQ ID; No 2) according to the operation manual, and detected with ABI 7700 PRISM sequence detector (PE Biosystem). The expression amount of p21 gene was calculated from a standard curve, divided by the expression amount of β-actin gene, which was used as an internal standard, and expressed in a standardized relative expression amount.

[6] = system: p21 gene expression in ACHN cells; assay: p21 gene expression in vitro by real time PCR, ACHN (Example 4); assay type: cell-based, human; details: FR901228 5 ng/mL, FIG. 4(b)
Method: as §6, §7, §8, §9

[7] = system: p21 gene and c-myc gene expression in PC-3 tumor; assay: p21 and c-myc gene expression in vivo in PC-3 tumor of nude mouse (Example 5); details: 3.2 mg/kg i.v.
Method: (§10) Human prostate cancer PC-3 or kidney cancer ACHN was subcutaneously implanted in a nude mouse, and when the size of the tumor reached 100-300 mg, FR901228 (3.2 mg/kg) was intravenously administered. The tumor was removed with the lapse of time, and after extracting RNA, the expression amount of p21 gene and c-myc gene was examined by real time PCR in the same manner as in Example 4. The c-myc gene was amplified using a SYBR green PCR master mix (PE Biosystem) and primer 5′-GACAGATCAGCAACAACCGAAA-3′ (human c-myc upstream)(SEQ ID; No 3), 5′-TTGTGTGTTCGCCTCTTGACAT-3′ (human c-myc downstream)(SEQ ID; No 4) according to the operation manual, and detected with ABI 7700 PRISM sequence detector (PE Biosystem).

[8] = system: p21 gene and c-myc gene expression in ACHN tumor; assay: p21 and c-myc gene expression in vivo in ACHN tumor of nude mouse (Example 5); details: 3.2 mg/kg i.v.
Method: as §10

[9] = system: human prostate cancer PC-3; assay: In vivo growth suppression rate, PC-3 tumor-carrying mice; set-up: species or system mouse; details: PC-3, FR901228 3.2 mg/kg
Method: (§11) The growth suppression rate of human prostate cancer PC-3, human gastric cancer SC-6, human kidney cancer ACHN and human kidney cancer A498 by the administration of FR901228 (3.2 mg/kg) was 98%, 84%, 20% and 29%, respectively. Therefore, PC-3 and SC-6 were determined to be FK228 sensitive tumors, and ACHN and A498 were determined to be FK228 resistant tumors.

[10] = system: human gastric cancer SC-6; assay: In vivo growth suppression rate, SC-6 tumor-carrying mice; set-up: species or system mouse; details: SC-6, FR901228 3.2 mg/kg
Method: as §11

[11] = system: human kidney cancer ACHN; assay: In vivo growth suppression rate, ACHN tumor-carrying mice; set-up: species or system mouse; details: FR901228 3.2 mg/kg
Method: as §11

[12] = system: human kidney cancer A498; assay: In vivo growth suppression rate, A498 tumor-carrying mice; set-up: species or system mouse; details: A498, FR901228 3.2 mg/kg
Method: as §11

[13] = system: histone deacetylase; details: Nakajima, H. et al (1998); cited from earlier work
[14] = system: human prostate cancer PC-3; assay: In vitro growth suppression, PC-3; assay type: cell-based; details: PC-3, contacted for 72 hr
[15] = system: human lymphoma U937; assay: In vitro growth suppression, U937; assay type: cell-based; details: U937, contacted for 72 hr
[16] = system: human kidney cancer ACHN; assay: In vitro growth suppression, ACHN; assay type: cell-based; details: contacted for 72 hr

## C/C=C1\NC(=O)[C@H]2CSSCC/C=C/[C@H](CC(=O)N[C@H](C(C)C)C(=O)N2)OC(=O)[C@H](C(C)C)NC1=O [FR901228]
[1]
  antitumor effect in vivo against human prostate cancer (tumor growth rate): showed an antitumor effect
[2]
  antitumor effect in vivo against human lymphoma (survival of mice): showed an antitumor effect
[3]
  antitumor effect against PC-3 (tumor growth rate): potent antitumor effect
[4]
  antitumor effect against ACHN (tumor growth rate): did not show an antitumor effect
[5]
  p21 gene expression in vitro: increased expression of the p21 gene with the lapse of time
[6]
  p21 gene expression in vitro: did not show increased expression of p21 gene
[7]
  c-myc gene expression in vivo: decreased expression
  time of peak of p21 gene expression after administration: 3 h
[7]; FIG. 5(a)
  p21 gene expression in vivo: increased expression of p21 gene
[8]
  c-myc gene expression in vivo: increased expression
[8]; FIG. 5(a)
  p21 gene expression in vivo: did not show increased expression of p21 gene
[9]
  growth suppression rate: 98%
[10]
  growth suppression rate: 84%
[11]
  growth suppression rate: 20%
[12]
  growth suppression rate: 29%
[13]
  histone deacetylase inhibitory activity: stronger histone deacetylase inhibitory activity

## FK228
[14]
  growth suppression effect in IC50 value: 3.17 ng/mL
[15]
  growth suppression effect in IC50 value: 3.20 ng/mL
[16]
  growth suppression effect in IC50 value: 4.25 ng/mL
